Measurements: ChEMBL document CHEMBL1154437, “Pyrimido[1,2-a]quinoxaline 6-oxide and phenazine 5,10-dioxide derivatives and related compounds as growth inhibitors of Trypanosoma cruzi” (Eur J Med Chem, 2008)

Tested on: Trypanosoma cruzi
Experiment: Antitrypanosomal activity against Trypanosoma cruzi Tulahuen 2 epimastigotes at 25 uM
Format: functional
Settings: read-out: GI

Q: Which inhibition of growth at 25 µM does the source give for `O=[N+]([O-])c1ccccc1C1=[N+]([O-])c2ccccc2N2CCCN=C12` here?
A: The inhibition of growth at 25 µM was 12%.

Q: `C[N+]1=C2C(c3ccc([N+](=O)[O-])cc3)=[N+]([O-])c3ccccc3N2CCC1` was tested. Which inhibition of growth at 25 µM did it give?
A: Its inhibition of growth at 25 µM is 20%.

Q: How did the inhibition of growth at 25 µM turn out when `CC1=[N+]([O-])c2ccccc2N2CCCN=C12` was run?
A: Its inhibition of growth at 25 µM is 22%.

Q: For `COc1ccc(C2=[N+]([O-])c3ccccc3N3CCC[N+](C)=C23)cc1`, which inhibition of growth at 25 µM is on record?
A: Its inhibition of growth at 25 µM is 9%.

Q: `C[N+]1=C2C(c3ccccc3)=[N+]([O-])c3ccccc3N2CCC1` was tested. Which inhibition of growth at 25 µM did it give?
A: Its inhibition of growth at 25 µM is 20%.

Q: Which inhibition of growth at 25 µM does the source give for `[O-][N+]1=C(Cc2ccccc2)C2=NCCCN2c2ccccc21` here?
A: Its inhibition of growth at 25 µM is 13%.

Q: Which inhibition of growth at 25 µM does the source give for `COc1ccc(C2=[N+]([O-])c3ccccc3N3CCCN=C23)cc1` here?
A: Its inhibition of growth at 25 µM is 36%.

Q: Which inhibition of growth at 25 µM does the source give for `[O-][n+]1c2ccccc2[n+]([O-])c2cc(O)ccc21` here?
A: The inhibition of growth at 25 µM was 0%.

Q: How did the inhibition of growth at 25 µM turn out when `[O-][N+]1=C(c2ccc(Cl)cc2)C2=NCCCN2c2ccccc21` was run?
A: Its inhibition of growth at 25 µM is 14%.

Q: With `[O-][N+]1=C(c2ccccc2)C2=NCCCN2c2ccccc21` as the compound, how does the inhibition of growth at 25 µM read?
A: The inhibition of growth at 25 µM was 36%.

Q: Which inhibition of growth at 25 µM does the source give for `[O-][N+]1=C(c2ccccc2Cl)C2=NCCCN2c2ccccc21` here?
A: The inhibition of growth at 25 µM was 14%.

Q: `COc1ccc(C2=[N+]([O-])c3ccccc3N3CC(C)(C)CN=C23)cc1` was tested. Which inhibition of growth at 25 µM did it give?
A: The inhibition of growth at 25 µM was 13%.

Q: `O=[N+]([O-])c1ccc(C2=[N+]([O-])c3ccccc3N3CCCN=C23)cc1` was tested. Which inhibition of growth at 25 µM did it give?
A: Its inhibition of growth at 25 µM is 9%.

Q: Which inhibition of growth at 25 µM does the source give for `c1ccc(C2=Nc3ccccc3N3CCCN=C23)cc1` here?
A: The inhibition of growth at 25 µM was 29%.

Tested on: Trypanosoma cruzi
Experiment: Antitrypanosomal activity against Trypanosoma cruzi CL Brener epimastigotes at 25 uM
Format: functional
Settings: read-out: GI

Q: With `[O-][n+]1c2ccccc2[n+]([O-])c2cc(O)ccc21` as the compound, how does the inhibition of growth at 25 µM read?
A: The inhibition of growth at 25 µM was 14%.

Tested on: Trypanosoma cruzi
Experiment: Antitrypanosomal activity against Trypanosoma cruzi Y epimastigotes at 25 uM
Format: functional
Settings: read-out: GI

Q: Which inhibition of growth at 25 µM does the source give for `[O-][n+]1c2ccccc2[n+]([O-])c2cc(O)ccc21` here?
A: Its inhibition of growth at 25 µM is 0%.
